Test results taken from US10766908B2, “Calcium L-lactate frameworks as naturally degradable carriers” (priority 2017, dated 2020).

Test: Slow release of cis-1,3-dichloropropene under air flow, sample weight monitored by thermogravimetric instrument
Format: physicochemical
Settings: air flow of 1.0 cm^3 min^−1, 25° C.
Description: Here we present the use of MOF-1201 for this purpose Fumigant cis-1,3-dichloropropene has been chosen as an example. Static adsorption isotherm of cis-1,3-dichloropropene in MOF-1201 at 25° C. is shown in FIG. 3c, displaying a sharp uptake of 1.4 mmol g^−1 (13 wt %) in low partial pressure range (P/P0=0.1), attributed to adsorption within the micropores. […] In contrast, the cis-1,3-dichloropropene encapsulated in MOF-1201 released in a much slower manner, with 80% of the total (10.5 wt %) released in 100,000 min g^−1, corresponding to 100 times slower compared with liquid cis-1,3-dichloropropene under the same conditions.
Slow release experiments were carried out using the TA Q500 thermal analysis system under constant air flow rate of 1 cm^3 min ^−1.

Structure (SMILES): Cl/C=C\CCl [liquid cis-1,3-dichloropropene, cis-1,3-dichloropropene]
- time for 80% of the total weight to be released/evaporated: ≤ 1,000 min g^−1
